According to ChEMBL document CHEMBL1671792, “Conformationally constrained farnesoid X receptor (FXR) agonists: heteroaryl replacements of the naphthalene” (Bioorg Med Chem Lett, 2011):

What was measured:
[1] = system: Mus musculus; test: Antidiabetic activity in diet-induced obese mouse assessed as change in body weight at 100 mg/kg, po for 4 weeks measured after 4 weeks (reference value: 29.1+/-0.8 g); format: functional
[2] = system: Mus musculus; test: Antidiabetic activity in diet-induced obese mouse assessed as serum glucose level at 10 mg/kg, po for 4 weeks (reference value: 316.5 +/-13.2 mg/dL); format: functional
[3] = system: Mus musculus; test: Antidiabetic activity in diet-induced obese mouse assessed as total cholesterol level at 10 mg/kg, po for 4 weeks (reference value: 140.0 +/-2.8 mg/dL); format: functional
[4] = system: Mus musculus; test: Antidiabetic activity in diet-induced obese mouse assessed as triglyceride level at 10 mg/kg, po for 4 weeks (reference value: 54.4 +/-1.5 mg/dL); format: functional
[5] = system: Mus musculus; test: Antidiabetic activity in diet-induced obese mouse assessed as beta-hydroxybutyrate level at 10 mg/kg, po for 4 weeks (reference value: 1.7 +/-0.1 mg/dL); format: functional
[6] = system: Mus musculus; test: Antidiabetic activity in diet-induced obese mouse assessed as serum glucose level at 30 mg/kg, po for 4 weeks (reference value: 316.5 +/-13.2 mg/dL); format: functional
[7] = system: Mus musculus; test: Antidiabetic activity in diet-induced obese mouse assessed as NEFA level at 30 mg/kg, po for 4 weeks (reference value: 0.46 +/-0.02 mEq/dL); format: functional
[8] = system: Mus musculus; test: Antidiabetic activity in diet-induced obese mouse assessed as beta-hydroxybutyrate level at 30 mg/kg, po for 4 weeks (reference value: 1.7 +/-0.1 mg/dL); format: functional
[9] = system: Mus musculus; test: Antidiabetic activity in diet-induced obese mouse assessed as serum insulin level at 100 mg/kg, po for 4 weeks (reference value: […]); format: functional
[10] = system: Mus musculus; test: Antidiabetic activity in diet-induced obese mouse assessed as triglyceride level at 100 mg/kg, po for 4 weeks (reference value: 54.4 +/-1.5 mg/dL); format: functional
[11] = system: Mus musculus; test: Antidiabetic activity in diet-induced obese mouse assessed as NEFA level at 100 mg/kg, po for 4 weeks (reference value: 0.46 +/-0.02 mEq/dL); format: functional
[12] = system: Mus musculus; test: Antidiabetic activity in diet-induced obese mouse assessed as glycerol level at 100 mg/kg, po for 4 weeks (reference value: 11.0 +/-1.3 mg/dL); format: functional
[13] = target: T1, Bile acid receptor (Homo sapiens) (UniProt Q96RI1); test: Agonist activity at human FXR LBD iexpressed in monkey CV-1 cells assessed as transactivation of luciferase reporter gene expression relative to GW 4064; format: functional, cell-based; parameters: concentration or dose not given beside the values
T1 sequence (whole entry): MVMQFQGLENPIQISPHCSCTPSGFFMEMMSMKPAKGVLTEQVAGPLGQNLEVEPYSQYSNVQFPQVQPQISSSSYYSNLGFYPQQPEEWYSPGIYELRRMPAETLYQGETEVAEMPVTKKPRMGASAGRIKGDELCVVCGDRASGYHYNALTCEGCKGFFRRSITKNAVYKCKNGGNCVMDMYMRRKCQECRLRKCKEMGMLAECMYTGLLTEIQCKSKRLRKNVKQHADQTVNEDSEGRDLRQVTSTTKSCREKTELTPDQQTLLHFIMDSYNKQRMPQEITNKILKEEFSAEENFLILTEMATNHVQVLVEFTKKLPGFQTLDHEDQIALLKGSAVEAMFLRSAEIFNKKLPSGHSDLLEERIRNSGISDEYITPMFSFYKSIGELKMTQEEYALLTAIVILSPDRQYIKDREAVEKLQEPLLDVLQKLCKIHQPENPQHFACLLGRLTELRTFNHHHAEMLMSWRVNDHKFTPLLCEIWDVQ

[14] = Half life in iv dosed mouse; format: ADME, organism-based; settings: in vivo
[15] = Clearance in iv dosed Beagle dog; format: ADME, organism-based, Canis lupus familiaris; settings: in vivo
[16] = Clearance in iv dosed cynomolgus monkey; format: ADME, organism-based, Macaca fascicularis; settings: in vivo
[17] = Volume of distribution at steady state in iv dosed mouse; format: ADME, organism-based; settings: in vivo, read-out: Vdss
[18] = Oral bioavailability in Beagle dog; format: ADME, organism-based, Canis lupus familiaris; settings: in vivo
[19] = Oral bioavailability in cynomolgus monkey; format: ADME, organism-based, Macaca fascicularis; settings: in vivo
[20] = system: Mus musculus; test: Dose normalized AUC in orally dosed mouse; format: ADME, organism-based; settings: in vivo, po
[21] = system: Rattus norvegicus; test: Dose normalized AUC in orally dosed rat; format: ADME, organism-based; settings: in vivo, po
[22] = system: Canis familiaris; test: Dose normalized AUC in orally dosed Beagle dog; format: ADME, organism-based, Canis lupus familiaris; settings: in vivo, po
[23] = target: Cytochrome P450 2C9 (Homo sapiens, UniProt P11712); test: Inhibition of CYP2C9 in human liver microsome; format: microsomes
Sequence of Cytochrome P450 2C9 (P11712 whole entry): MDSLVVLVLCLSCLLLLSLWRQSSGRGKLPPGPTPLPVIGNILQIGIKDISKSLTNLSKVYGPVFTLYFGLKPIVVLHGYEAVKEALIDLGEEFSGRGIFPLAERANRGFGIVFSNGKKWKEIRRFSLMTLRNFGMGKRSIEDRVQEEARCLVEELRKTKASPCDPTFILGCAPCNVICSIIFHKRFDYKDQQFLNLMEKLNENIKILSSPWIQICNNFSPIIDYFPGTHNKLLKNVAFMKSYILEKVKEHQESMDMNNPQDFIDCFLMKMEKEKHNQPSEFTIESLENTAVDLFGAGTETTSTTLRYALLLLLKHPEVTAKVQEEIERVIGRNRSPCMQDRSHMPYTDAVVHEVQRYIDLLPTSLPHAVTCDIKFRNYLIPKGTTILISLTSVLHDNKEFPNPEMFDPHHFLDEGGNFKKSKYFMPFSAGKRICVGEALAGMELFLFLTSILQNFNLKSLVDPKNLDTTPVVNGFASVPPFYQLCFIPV

[24] = target: Cytochrome P450 2C19 (Homo sapiens, UniProt P33261); test: Inhibition of CYP2C19 in human liver microsome; format: microsomes
Sequence of Cytochrome P450 2C19 (P33261 whole entry): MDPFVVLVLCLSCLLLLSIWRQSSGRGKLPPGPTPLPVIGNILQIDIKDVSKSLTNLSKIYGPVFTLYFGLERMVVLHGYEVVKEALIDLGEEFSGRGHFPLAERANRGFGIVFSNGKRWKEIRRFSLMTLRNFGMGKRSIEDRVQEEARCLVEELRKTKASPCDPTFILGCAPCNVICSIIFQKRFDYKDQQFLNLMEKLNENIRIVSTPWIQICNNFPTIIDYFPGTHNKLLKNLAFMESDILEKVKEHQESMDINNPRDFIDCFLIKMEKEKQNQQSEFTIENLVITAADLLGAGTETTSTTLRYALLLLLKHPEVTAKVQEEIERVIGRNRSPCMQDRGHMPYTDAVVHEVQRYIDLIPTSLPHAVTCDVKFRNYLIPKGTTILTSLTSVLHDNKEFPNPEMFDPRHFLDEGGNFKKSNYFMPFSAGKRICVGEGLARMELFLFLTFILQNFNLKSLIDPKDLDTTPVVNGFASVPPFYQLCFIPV

[25] = target: Cytochrome P450 2D6 (Homo sapiens, UniProt P10635); test: Inhibition of CYP2D6 in human liver microsome; format: microsomes
Sequence of Cytochrome P450 2D6 (P10635 whole entry): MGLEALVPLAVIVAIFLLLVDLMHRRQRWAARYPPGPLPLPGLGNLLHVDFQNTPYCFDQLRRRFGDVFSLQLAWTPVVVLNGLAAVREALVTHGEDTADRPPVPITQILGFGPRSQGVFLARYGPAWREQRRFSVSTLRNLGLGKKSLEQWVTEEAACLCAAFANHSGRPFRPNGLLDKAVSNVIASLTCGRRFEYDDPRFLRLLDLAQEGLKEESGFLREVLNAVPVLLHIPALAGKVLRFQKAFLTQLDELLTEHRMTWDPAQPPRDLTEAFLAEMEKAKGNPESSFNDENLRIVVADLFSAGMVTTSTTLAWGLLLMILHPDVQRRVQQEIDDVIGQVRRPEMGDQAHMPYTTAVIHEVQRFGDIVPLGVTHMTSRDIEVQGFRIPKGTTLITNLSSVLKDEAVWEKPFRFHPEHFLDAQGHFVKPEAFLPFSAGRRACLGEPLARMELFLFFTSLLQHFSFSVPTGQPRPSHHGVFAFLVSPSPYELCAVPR

[26] = organism: Homo sapiens; test: Selectivity ratio of EC50 for human FXR to EC50 for human LRH
[27] = organism: Homo sapiens; test: Selectivity ratio of EC50 for human FXR to EC50 for human LXRalpha
[28] = organism: Homo sapiens; test: Selectivity ratio of EC50 for human FXR to EC50 for human LXRbeta
[29] = organism: Homo sapiens; test: Selectivity ratio of EC50 for human FXR to EC50 for human PPARalpha
[30] = organism: Homo sapiens; test: Selectivity ratio of EC50 for human FXR to EC50 for human PPARdelta
[31] = organism: Homo sapiens; test: Selectivity ratio of EC50 for human FXR to EC50 for human PXR
[32] = organism: Homo sapiens; test: Selectivity ratio of EC50 for human FXR to EC50 for human RORalpha
[33] = organism: Homo sapiens; test: Selectivity ratio of EC50 for human FXR to EC50 for human RXRalpha
[34] = Permeability across MDCK cell membrane; format: ADME, cell-based, Canis lupus familiaris; settings: dog
[35] = system: Mus musculus; test: Antidiabetic activity in diet-induced obese mouse assessed as change in body weight at 10 mg/kg, po for 4 weeks measured after 2 weeks (reference value: 30.3+/-0.8 g); format: functional
[36] = system: Mus musculus; test: Antidiabetic activity in diet-induced obese mouse assessed as change in body weight at 30 mg/kg, po for 4 weeks measured after 1 week (reference value: 29.6+/-0.9 g); format: functional
[37] = system: Mus musculus; test: Antidiabetic activity in diet-induced obese mouse assessed as change in body weight at 30 mg/kg, po for 4 weeks measured after 3 weeks (reference value: 29.6+/-0.9 g); format: functional
[38] = system: Mus musculus; test: Antidiabetic activity in diet-induced obese mouse assessed as change in body weight at 30 mg/kg, po for 4 weeks measured after 4 weeks (reference value: 29.6+/-0.9 g); format: functional
[39] = system: Mus musculus; test: Antidiabetic activity in diet-induced obese mouse assessed as change in body weight at 100 mg/kg, po for 4 weeks measured after 1 week (reference value: 29.1+/-0.8 g); format: functional
[40] = system: Mus musculus; test: Antidiabetic activity in diet-induced obese mouse assessed as change in body weight at 100 mg/kg, po for 4 weeks measured after 2 weeks (reference value: 29.1+/-0.8 g); format: functional
[41] = system: Mus musculus; test: Antidiabetic activity in diet-induced obese mouse assessed as change in body weight at 100 mg/kg, po for 4 weeks measured after 3 weeks (reference value: 29.1+/-0.8 g); format: functional

- Activity [13]: 102%
- half-life [14]: 1.4 h
- clearance [15]: 4.4 mL/min/kg
- clearance [16]: 3.1 mL/min/kg
- Vd [17]: 1.6 L/kg
- bioavailability [18]: 23%
- bioavailability [19]: 15%
- AUC [20]: 310 ng·kg·h/mg/mL
- AUC [21]: 130 ng·kg·h/mg/mL
- AUC [22]: 1260 ng·kg·h/mg/mL
- IC50 [23]: 4.4 µM
- IC50 [24]: > 33 µM
- IC50 [25]: > 33 µM
- Ratio EC50 [26]: 100
- Ratio EC50 [27]: 100
- Ratio EC50 [28]: 100
- Ratio EC50 [29]: 100
- Ratio EC50 [30]: 100
- Ratio EC50 [31]: 100
- Ratio EC50 [32]: 100
- Ratio EC50 [33]: 100
- Papp [34]: 18.3 ×10⁻⁶ cm/s
SMILES: CC(C)c1onc(-c2c(Cl)cccc2Cl)c1COc1ccc(-c2ccc3nc(C(=O)O)ccc3c2)cc1
- Activity [1]: 25.6 g
- Activity [2]: 313 mg/dL
- Activity [3]: 108.5 mg/dL
- Activity [4]: 55.8 mg/dL
- Activity [5]: 1.7 mg/dL
- Activity [6]: 282.2 mg/dL
- Activity [7]: 0.52 mEq/dL
- Activity [8]: 1.8 mg/dL
- Activity [9]: 0.34 ng/mL
- Activity [10]: 47.4 mg/dL
- Activity [11]: 0.65 mEq/dL
- Activity [12]: 9.7 mg/dL
- Activity [35]: 29.3 g
- Activity [36]: 28.4 g
- Activity [37]: 27.5 g
- Activity [38]: 27.3 g
- Activity [39]: 25.6 g
- Activity [40]: 23.2 g
- Activity [41]: 24.1 g
